Results from patent US20260007733A1, “Specific Saccharide Fragment for Development of Vibrio Cholerae Vaccines” (priority 2024, published 2026).

Test system: IgG antibodies in anti-sera immunized with the lipopolysaccharide of the V. cholerae O100 serotype
Assay: Glycan microarray screening of saccharide fragments with rabbit anti-sera
Assay type: binding
Conditions: rabbit sera diluted 1:200; goat anti-rabbit IgG secondary antibodies 1:400; FIG. 9
Protocol: Step 1: The obtained sugar fragment is dissolved in a 50 mM phosphate solution (pH=8.5), printed onto the microarray using a microarray spotter, and incubated at room temperature and 65% humidity overnight to covalently bind the saccharide fragment to the microarray; and after incubation, the microarray is quenched by treatment with a mixed solution of […] solution (pH=9) at 50° C. for 1 h.
Step 2: The glycan microarray is probed with diluted rabbit anti-sera and co-incubated to specifically bind IgG antibodies in the anti-sera to the saccharide fragment, and unbound serum antibodies are washed away; and subsequently, fluorescently labeled secondary antibodies (anti-IgG antibodies) are used to bind the IgG antibodies on the microarray and incubated, and unbound secondary antibodies are washed away.
Synthetic oligosaccharides and LPS were dissolved in a coupling buffer (50 mM sodium phosphate, pH=8.5) for printing onto a “CodeLink” slide (SurModics Co., Ltd.) using an RMA-Arrayer 96 (Rayme China). Then the slide was incubated overnight in a humidifying chamber at 26° C. and 55% humidity. The slide and the microarray were incubated in a quenching buffer ([…] ethanolamine) at 50° C. for 1 h. […]

Structure (SMILES): CC(=O)NC1C(O)[C@H](NC(C)=O)C(C)O[C@H]1OCN (stereo partly shown) [Compound 10]
- antigenicity / recognition by the antibodies (glycan microarray, fluorescence): cannot be recognized by the antibodies
